Measurements reported in article PMC9133015 (Nature Communications, 2022).
Values joined by “and” are separate entries in the source; they are usually repeats but may differ in a detail not shown here. Equal values may be shown once.

Legend:
Experiment in all cases: Kinase inhibitor specificity profiling (Reaction Biology Corporation)
Format in all cases: biochemical
Set-up in all cases: % Enzyme Activity (relative to DMSO controls): concentration or dose not given beside the values
[1] = molecular target: T1, panel of 370 protein kinases (Homo sapiens, UniProt O00506); conditions: 2 h, kinase STK25/YSK1; read-out: % Enzyme Activity (relative to DMSO controls)
T1 construct: purchased Reaction Biology Corporation (assay service)
T1 sequence (O00506 whole entry): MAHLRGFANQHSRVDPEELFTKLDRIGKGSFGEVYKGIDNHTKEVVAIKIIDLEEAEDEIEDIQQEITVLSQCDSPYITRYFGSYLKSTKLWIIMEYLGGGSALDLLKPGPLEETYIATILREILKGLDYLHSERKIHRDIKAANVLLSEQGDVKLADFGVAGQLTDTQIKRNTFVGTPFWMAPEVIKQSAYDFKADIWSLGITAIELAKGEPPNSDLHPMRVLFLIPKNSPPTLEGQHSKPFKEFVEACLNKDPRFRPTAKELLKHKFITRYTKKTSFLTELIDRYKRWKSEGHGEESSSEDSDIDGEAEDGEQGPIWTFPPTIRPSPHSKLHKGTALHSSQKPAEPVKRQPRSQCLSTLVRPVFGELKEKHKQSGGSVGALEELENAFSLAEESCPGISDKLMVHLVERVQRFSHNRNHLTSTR

[2] = molecular target: T2, panel of 370 protein kinases (Homo sapiens, UniProt O14757); conditions: kinase CHK1
T2 construct: purchased Reaction Biology Corporation (assay service)
T2 sequence (O14757 whole entry): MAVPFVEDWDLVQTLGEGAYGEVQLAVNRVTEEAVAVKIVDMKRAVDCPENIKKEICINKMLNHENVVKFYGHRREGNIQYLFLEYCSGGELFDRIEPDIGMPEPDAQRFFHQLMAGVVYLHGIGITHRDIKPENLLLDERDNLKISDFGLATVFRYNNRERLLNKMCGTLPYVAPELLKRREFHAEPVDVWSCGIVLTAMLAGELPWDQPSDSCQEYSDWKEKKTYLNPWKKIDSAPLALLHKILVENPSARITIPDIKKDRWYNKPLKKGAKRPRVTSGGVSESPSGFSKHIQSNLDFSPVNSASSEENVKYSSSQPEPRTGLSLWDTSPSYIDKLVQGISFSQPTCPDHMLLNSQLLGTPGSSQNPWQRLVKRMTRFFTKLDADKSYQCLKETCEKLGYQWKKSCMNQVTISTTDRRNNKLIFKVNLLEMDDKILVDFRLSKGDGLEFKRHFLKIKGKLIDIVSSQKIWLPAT

[3] = molecular target: T3, panel of 370 protein kinases (Homo sapiens, UniProt O43318); conditions: 2 h, kinase TAK1; read-out: % Enzyme Activity (relative to DMSO controls)
T3 construct: purchased Reaction Biology Corporation (assay service)
T3 sequence (O43318 whole entry): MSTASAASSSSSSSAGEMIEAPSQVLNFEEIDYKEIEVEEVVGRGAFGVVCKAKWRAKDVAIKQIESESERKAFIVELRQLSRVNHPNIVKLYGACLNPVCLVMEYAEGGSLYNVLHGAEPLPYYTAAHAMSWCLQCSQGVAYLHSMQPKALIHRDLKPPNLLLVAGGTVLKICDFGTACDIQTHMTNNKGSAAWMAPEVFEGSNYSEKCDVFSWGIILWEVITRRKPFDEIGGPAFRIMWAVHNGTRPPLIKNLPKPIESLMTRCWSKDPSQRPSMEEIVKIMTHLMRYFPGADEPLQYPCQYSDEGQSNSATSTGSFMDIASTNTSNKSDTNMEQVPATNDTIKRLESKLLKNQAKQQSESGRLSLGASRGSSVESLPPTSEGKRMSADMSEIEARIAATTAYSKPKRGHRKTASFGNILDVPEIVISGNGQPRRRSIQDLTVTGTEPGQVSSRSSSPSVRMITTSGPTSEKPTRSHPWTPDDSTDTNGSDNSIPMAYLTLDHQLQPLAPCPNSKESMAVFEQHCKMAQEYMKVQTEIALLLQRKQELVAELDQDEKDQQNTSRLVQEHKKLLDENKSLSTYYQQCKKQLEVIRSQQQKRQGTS

[4] = molecular target: T4, panel of 370 protein kinases (Homo sapiens, UniProt O95747); conditions: 2 h, kinase OSR1/OXSR1; read-out: % Enzyme Activity (relative to DMSO controls)
T4 construct: purchased Reaction Biology Corporation (assay service)

[5] = molecular target: T5, panel of 370 protein kinases (Homo sapiens, UniProt P22607); conditions: 2 h, kinase FGFR3; read-out: % Enzyme Activity (relative to DMSO controls)
T5 construct: purchased Reaction Biology Corporation (assay service)

[6] = molecular target: T6, panel of 370 protein kinases (Homo sapiens, UniProt P27448); conditions: 2 h, kinase MARK3; read-out: % Enzyme Activity (relative to DMSO controls)
T6 construct: purchased Reaction Biology Corporation (assay service)

[7] = molecular target: T7, panel of 370 protein kinases (Homo sapiens, UniProt P29322); conditions: 2 h, kinase EPHA8; read-out: % Enzyme Activity (relative to DMSO controls)
T7 construct: purchased Reaction Biology Corporation (assay service)

[8] = molecular target: T8, panel of 370 protein kinases (Homo sapiens, UniProt P43250); conditions: 2 h, kinase GRK6; read-out: % Enzyme Activity (relative to DMSO controls)
T8 construct: purchased Reaction Biology Corporation (assay service)

[9] = molecular target: T9, panel of 370 protein kinases (Homo sapiens, UniProt P52333); conditions: 2 h, kinase JAK3; read-out: % Enzyme Activity (relative to DMSO controls)
T9 construct: purchased Reaction Biology Corporation (assay service)

[10] = molecular target: T10, panel of 370 protein kinases (Homo sapiens, UniProt P53667); conditions: 2 h, kinase LIMK1; read-out: % Enzyme Activity (relative to DMSO controls)
T10 construct: purchased Reaction Biology Corporation (assay service)

[11] = molecular target: T11, panel of 370 protein kinases (Homo sapiens, UniProt Q05655); conditions: 2 h, kinase PKCd; read-out: % Enzyme Activity (relative to DMSO controls)
T11 construct: purchased Reaction Biology Corporation (assay service)
T11 sequence (Q05655 whole entry): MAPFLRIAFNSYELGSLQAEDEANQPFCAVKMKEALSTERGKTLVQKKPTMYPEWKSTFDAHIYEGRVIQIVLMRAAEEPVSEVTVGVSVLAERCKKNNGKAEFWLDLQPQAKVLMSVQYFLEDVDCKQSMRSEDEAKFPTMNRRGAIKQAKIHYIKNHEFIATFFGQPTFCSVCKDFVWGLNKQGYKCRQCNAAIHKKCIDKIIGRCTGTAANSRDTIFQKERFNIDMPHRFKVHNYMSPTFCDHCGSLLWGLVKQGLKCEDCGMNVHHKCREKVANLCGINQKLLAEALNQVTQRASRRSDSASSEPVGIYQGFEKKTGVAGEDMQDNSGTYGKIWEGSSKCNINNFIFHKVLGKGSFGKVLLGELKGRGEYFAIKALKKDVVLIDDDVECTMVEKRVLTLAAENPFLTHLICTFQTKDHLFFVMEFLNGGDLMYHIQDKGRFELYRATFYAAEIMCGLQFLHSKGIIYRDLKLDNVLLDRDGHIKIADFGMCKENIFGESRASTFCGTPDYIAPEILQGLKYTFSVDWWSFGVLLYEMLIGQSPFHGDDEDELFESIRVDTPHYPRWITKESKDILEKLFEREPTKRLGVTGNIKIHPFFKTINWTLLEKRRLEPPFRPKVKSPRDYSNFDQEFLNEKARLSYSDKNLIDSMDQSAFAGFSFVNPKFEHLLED

[12] = molecular target: T12, panel of 370 protein kinases (Homo sapiens, UniProt Q06187); conditions: kinase BTK
T12 construct: purchased Reaction Biology Corporation (assay service)
T12 sequence (Q06187 whole entry): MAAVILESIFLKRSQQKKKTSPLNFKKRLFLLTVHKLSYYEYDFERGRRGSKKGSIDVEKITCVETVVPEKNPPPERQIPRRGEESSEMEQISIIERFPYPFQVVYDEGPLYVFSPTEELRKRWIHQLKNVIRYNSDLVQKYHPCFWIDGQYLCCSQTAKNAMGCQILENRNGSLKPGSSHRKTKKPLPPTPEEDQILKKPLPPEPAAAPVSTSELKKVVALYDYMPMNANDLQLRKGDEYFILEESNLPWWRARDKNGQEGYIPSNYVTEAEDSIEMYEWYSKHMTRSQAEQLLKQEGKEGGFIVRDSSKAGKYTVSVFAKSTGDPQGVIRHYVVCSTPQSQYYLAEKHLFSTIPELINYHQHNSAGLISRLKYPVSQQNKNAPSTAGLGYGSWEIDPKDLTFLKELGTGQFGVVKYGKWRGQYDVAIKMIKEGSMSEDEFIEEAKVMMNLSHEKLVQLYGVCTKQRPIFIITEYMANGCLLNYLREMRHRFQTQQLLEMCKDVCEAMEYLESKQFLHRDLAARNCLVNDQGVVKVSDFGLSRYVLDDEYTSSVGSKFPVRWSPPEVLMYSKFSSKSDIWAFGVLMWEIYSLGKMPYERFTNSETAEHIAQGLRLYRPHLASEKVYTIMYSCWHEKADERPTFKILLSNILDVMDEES

[13] = molecular target: T13, panel of 370 protein kinases (Homo sapiens, UniProt Q14164); conditions: 2 h, kinase IKKe/IKBKE; read-out: % Enzyme Activity (relative to DMSO controls)
T13 construct: purchased Reaction Biology Corporation (assay service)

[14] = molecular target: T14, panel of 370 protein kinases (Homo sapiens, UniProt Q16288); conditions: 2 h, kinase TRKC; read-out: % Enzyme Activity (relative to DMSO controls)
T14 construct: purchased Reaction Biology Corporation (assay service)

[15] = molecular target: T15, panel of 370 protein kinases (Homo sapiens, UniProt Q16816); conditions: 2 h, kinase PHKg1; read-out: % Enzyme Activity (relative to DMSO controls)
T15 construct: purchased Reaction Biology Corporation (assay service)

[16] = molecular target: T16, panel of 370 protein kinases (Homo sapiens, UniProt Q5S007); conditions: 2 h, kinase LRRK2; read-out: % Enzyme Activity (relative to DMSO controls)
T16 construct: purchased Reaction Biology Corporation (assay service)

[17] = molecular target: T17, panel of 370 protein kinases (Homo sapiens, UniProt Q6VAB6); conditions: 2 h, kinase KSR2; read-out: % Enzyme Activity (relative to DMSO controls)
T17 construct: purchased Reaction Biology Corporation (assay service)

[18] = molecular target: T18, panel of 370 protein kinases (Homo sapiens, UniProt Q96NX5); conditions: 2 h, kinase CAMK1g; read-out: % Enzyme Activity (relative to DMSO controls)
T18 construct: purchased Reaction Biology Corporation (assay service)
T18 sequence (Q96NX5 whole entry): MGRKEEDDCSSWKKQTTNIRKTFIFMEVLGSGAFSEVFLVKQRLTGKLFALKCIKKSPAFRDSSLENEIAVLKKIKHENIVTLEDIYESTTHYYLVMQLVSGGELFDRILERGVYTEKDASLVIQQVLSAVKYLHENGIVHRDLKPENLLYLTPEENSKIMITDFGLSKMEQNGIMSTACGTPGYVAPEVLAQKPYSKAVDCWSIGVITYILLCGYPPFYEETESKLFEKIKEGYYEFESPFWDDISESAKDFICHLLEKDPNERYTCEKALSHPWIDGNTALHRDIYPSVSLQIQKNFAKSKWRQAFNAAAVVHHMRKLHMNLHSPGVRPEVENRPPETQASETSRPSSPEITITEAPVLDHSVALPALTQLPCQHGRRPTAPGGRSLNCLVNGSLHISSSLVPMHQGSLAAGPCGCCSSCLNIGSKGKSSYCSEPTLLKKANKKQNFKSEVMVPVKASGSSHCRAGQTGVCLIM

[19] = molecular target: T19, panel of 370 protein kinases (Homo sapiens, UniProt Q9BUB5); conditions: 2 h, kinase MNK1; read-out: % Enzyme Activity (relative to DMSO controls)
T19 construct: purchased Reaction Biology Corporation (assay service)

[20] = molecular target: T20, panel of 370 protein kinases (Homo sapiens, UniProt Q9UKE5); conditions: 2 h, kinase TNIK; read-out: % Enzyme Activity (relative to DMSO controls)
T20 construct: purchased Reaction Biology Corporation (assay service)
T20 sequence (Q9UKE5 whole entry): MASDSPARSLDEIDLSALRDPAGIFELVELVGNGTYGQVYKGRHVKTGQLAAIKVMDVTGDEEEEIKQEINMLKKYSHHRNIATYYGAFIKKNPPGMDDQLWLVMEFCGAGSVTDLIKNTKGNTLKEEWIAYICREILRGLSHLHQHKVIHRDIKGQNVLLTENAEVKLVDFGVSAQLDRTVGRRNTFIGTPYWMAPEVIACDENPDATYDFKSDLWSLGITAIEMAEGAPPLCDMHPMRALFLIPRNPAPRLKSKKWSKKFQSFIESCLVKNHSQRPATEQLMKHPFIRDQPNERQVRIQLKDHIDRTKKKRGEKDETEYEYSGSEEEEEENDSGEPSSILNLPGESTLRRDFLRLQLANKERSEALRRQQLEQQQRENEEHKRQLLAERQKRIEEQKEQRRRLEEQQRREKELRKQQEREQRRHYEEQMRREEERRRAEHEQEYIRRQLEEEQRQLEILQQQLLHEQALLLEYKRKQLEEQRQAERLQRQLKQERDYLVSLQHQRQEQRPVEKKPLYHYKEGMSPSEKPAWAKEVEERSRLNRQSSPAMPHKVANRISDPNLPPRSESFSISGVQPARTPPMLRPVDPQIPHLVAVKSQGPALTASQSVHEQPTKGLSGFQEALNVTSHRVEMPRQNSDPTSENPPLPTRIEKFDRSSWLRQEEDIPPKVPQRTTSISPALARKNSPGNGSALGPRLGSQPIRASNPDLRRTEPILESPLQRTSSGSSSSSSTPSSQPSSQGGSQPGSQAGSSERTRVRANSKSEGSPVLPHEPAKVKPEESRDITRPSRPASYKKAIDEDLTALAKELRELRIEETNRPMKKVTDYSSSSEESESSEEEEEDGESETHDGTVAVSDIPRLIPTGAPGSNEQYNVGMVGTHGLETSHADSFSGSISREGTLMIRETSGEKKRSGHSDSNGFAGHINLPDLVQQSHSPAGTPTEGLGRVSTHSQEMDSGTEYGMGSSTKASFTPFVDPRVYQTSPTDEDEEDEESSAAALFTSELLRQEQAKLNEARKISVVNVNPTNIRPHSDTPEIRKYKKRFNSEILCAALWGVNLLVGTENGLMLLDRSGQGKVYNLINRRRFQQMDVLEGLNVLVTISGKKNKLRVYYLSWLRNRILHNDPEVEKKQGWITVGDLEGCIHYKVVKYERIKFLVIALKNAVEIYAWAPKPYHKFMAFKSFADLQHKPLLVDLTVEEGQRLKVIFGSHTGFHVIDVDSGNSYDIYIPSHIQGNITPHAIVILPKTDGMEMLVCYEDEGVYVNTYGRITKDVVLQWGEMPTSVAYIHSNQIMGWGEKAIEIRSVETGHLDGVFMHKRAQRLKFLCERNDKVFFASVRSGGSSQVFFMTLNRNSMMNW

[21] = molecular target: T21, panel of 370 protein kinases (Homo sapiens, UniProt Q9Y2U5); conditions: 2 h, kinase MEKK2; read-out: % Enzyme Activity (relative to DMSO controls)
T21 construct: purchased Reaction Biology Corporation (assay service)

CCN1CCN(C(=O)c2ccc(Nc3ncc(F)c(-c4ccc5nc(N(C)C)sc5c4)n3)nc2)CC1 [YK-2-69]
remaining activity at 1 µM [1]: 102%
% Enzyme Activity (relative to DMSO controls) [2]: 90.61% and 88.71%
remaining activity at 1 µM [3]: 103%
remaining activity at 1 µM [4]: 89.2%
remaining activity at 1 µM [5]: 94%
remaining activity at 1 µM [6]: 103%
remaining activity at 1 µM [7]: 102%
remaining activity at 1 µM [8]: 114%
remaining activity at 1 µM [9]: 111%
remaining activity at 1 µM [10]: 95.7%
remaining activity at 1 µM [11]: 70.9%
% Enzyme Activity (relative to DMSO controls) [12]: 90.26% and 87.58%
remaining activity at 1 µM [13]: 98.5%
remaining activity at 1 µM [14]: 77.7%
remaining activity at 1 µM [15]: 89.4%
remaining activity at 1 µM [16]: 72%
remaining activity at 1 µM [17]: 93%
remaining activity at 1 µM [18]: 56.8%
remaining activity at 1 µM [19]: 89.6%
remaining activity at 1 µM [20]: 70.5%
remaining activity at 1 µM [21]: 113%
